# Results: US6977269B1, “Method of improving animal tissue quality” (Pioneer Hi-Bred International, Inc, priority 2001, dated 2005)
# Marks after values point to notes of the source that are not given here.
# Tests used:
# pigs [1] = test: Minolta Chroma Meter L*, a*, b* of pork chops in simulated retail display; format: in vivo
# Procedure: (§1) Young pigs were fed a diet containing 15 IU/kg feed (=15 mg/kg feed=[…]) vitamin E (in the form of alpha-tocopherol acetate) up to 120 pounds. Upon reaching 120 pounds, the pigs were randomly assigned to treatments using weight as a blocking factor. Sixteen pigs were allocated to the control diet, while thirteen pigs were allocated to each test diet. Treatments consisted of typical corn-soybean meal based diets with three levels of dietary tocopherol: (1) Control diet (15 mg/kg feed alpha-tocopherol acetate); (2) diets supplemented with 150, 300 or 450 mg/kg feed alpha-tocopherol acetate; and (3) diets supplemented with 150, 300 or 450 mg/kg feed gamma-tocopherol. Diets were formulated to provide adequate levels of all nutrients and fed in four phases.
# (§2) Pork chops (2.5 cm) were cut from vacuum-packaged pork loins that had been stored for 21 days at 1 degree C. Freshly cut chops were placed on styrofoam trays with DriLoc (V 50 pads) and overwrapped with PVC (23,250 cc/m 2 /24 hours oxygen permeability). Pork chops were placed in simulated retail display at 2±3 degrees C. for six days. Product temperature was monitored during the display period. Chops were analyzed for lightness (L*), redness (a*), and yellowness (b*) using Illuminant C or D65 on a Minolta Chroma Meter. Three readings per chop were taken on display days 0, 1, 2, 3, 4 and 5.
# (§3) Data were analyzed using the GLM procedure of SAS. Due to a limited number of observations from the 150 IU alpha-tocopherol treatment, no estimates of carcass or loin quality measures are presented for that treatment. Data collected over a period of days were also analyzed as a splitplot. Contrasts were made between the Control and added tocopherol diets, Control and alpha-tocopherol, Control and gamma-tocopherol, and alpha- versus gamma-tocopherol.
# pigs [2] = test: Japanese color score of pork loin in swine feeding trial; format: in vivo
# Procedure: (§4) Applicants assessed the effects of gamma-tocopherol supplementation on meat quality in an experiment in which pork from pigs fed one of three dietary concentrations of gamma-tocopherol was compared to pork from pigs fed either no supplemental tocopherol in excess of amounts needed to support growth and development, or one of three dietary concentrations of alpha-tocopherol.
# as §1
# (§5) The levels of alpha-tocopherol supplementation chosen were those previously shown to improve meat quality and the pigs consuming these diets were used as positive controls. Pigs consuming diets without additional supplementation of alpha or gamma-tocopherol were used as negative controls. Pork quality was assessed using standard methods, including pH, Japanese color score, oxidative stability, retail display appearance and Minolta color values.
# (§6) The trial was terminated when the average weight of a treatment replicate reached 260 pounds (minimum of 60 days). Standard carcass data (hot carcass weight, backfat, loin depth and lean) were collected. In addition to the standard carcass data collected at the slaughter plant, color, pH, marbling, firmness and Hunter Lab data were collected. Loin and ham samples were also collected for determination of gamma-tocopherol concentration.
# as §3
# [3] = in vivo; cited from earlier work
# pigs [4] = test: Pork loin pH in swine feeding trial; format: in vivo
# Procedure: as §4, §1, §5, §6
# Determination of pH was made on days 0 and 5 as an indication of pork spoilage. Oxidative rancidity was measured using 2-Thiobarbituric acid to determine TBA number. Final values were expressed as mg malonaldehyde per 1000 grams of meat. Purge was determined on the vacuum-packaged pork loins.
# as §3
# lambs [5] = test: Growth performance in lambs; format: in vivo; settings: for Interim BW: after 20 days on test; for Final BW: after 43 days on test
# Text: The effects of diet supplementation with alpha-tocopherol and gamma-tocopherol on tissue oxidation and storage life of fresh meat from lambs fed a diet supplemented with tocopherol was studied. A total of 42 weaned Western white-faced lambs (4 ewes, 38 males) were used in a feeding trial. The lambs were housed two per pen in a slatted floor barn and initially fed chopped oat hay, then gradually acclimated to a beet pulp-based basal diet. The basal ration consisted of 82.2% beet pulp pellets, 9.5% chopped oat hay, 6.0% liquid molasses, 1.5% soybean meal, 0.8% mineralized salt, and monensin (30 g/ton). All lambs were given ad libitum access to the basal diet.
# The basal diet was fed for 60 days and on days 61 and 62, lambs were weighed to calculate initial body weight. Lambs were blocked by weight, without regard to gender, and randomly assigned within weight blocks to pens, and pens were randomly assigned to dietary treatments (14 lambs/treatment).
# (§7) Interim and final weights were taken on two consecutive days after 20 and 43 days on test, respectively, to calculate average daily weight gain (ADG) and feed conversion. On the 45th day on test, the lambs were transported to a commercial packing plant and slaughtered the following morning. Standard carcass data were collected.
# The fourth column is standard error of measurement (SEM). The last two columns are P values for the statistical comparison of the alpha group versus the gamma group, and the control group versus the alpha and gamma groups.
# pigs [6] = test: Visual panel appearance score of pork loin chops in simulated retail display; format: in vivo
# Procedure: as §1, §2
# Loin chop color was evaluated using a trained visual panel of 10 people. Color score was determined using a five-point scale with a score of one (1) representing a very bright pinkish gray and a score of five (5) representing a dull dark red to brown color representative of color deterioration.
# as §3
# lambs [7] = test: Lamb carcass characteristics; format: in vivo; settings: for Bone maturity: A0 = 1.0 ... A90 = 1.9; for Leg score: high Prime = 15 ... low Choice = 10; for Adjusted fat / Body wall thickness / Dressing percentage / Quality grade / Rib eye area / Yield grade: in vivo; for Hot carcass weight: lambs, 500 IU/kg/day for 45 days; for Flank streaking: trace = 1, slight = 2, small = 3
# Text: as §7
# Characteristics included hot carcass weight, adjusted fat, rib eye area, and body wall thickness. As indicated in the last two columns under Contrasts (P values), there were no statistically significant differences (P<0.05) in carcass measurements between the alpha and gamma groups or between the control group and the alpha and gamma groups.
# [8] = pork loin, all supplemented levels pooled
# [9] = five-point scale, all supplemented levels pooled
smiles,measurement,setting,value
"Cc1c(C)c2c(c(C)c1O)CC[C@@](C)(CCC[C@H](C)CCC[C@H](C)CCCC(C)C)O2 [Alpha-tocopherol, alpha-tocopherol, reference compound]",Minolta L* values (after 5 day retail display),pigs [1]; all supplemented levels pooled,43.6
same,Minolta a* values (after 5 day retail display),pigs [1]; all supplemented levels pooled,7.49
same,Minolta b* values (after 5 day retail display),pigs [1]; all supplemented levels pooled,4.95
same,Minolta L* values (after 5 day retail display),pigs [1]; dietary level 300 IU,45.3^ab
same,Minolta a* values (after 5 day retail display),pigs [1]; dietary level 300 IU,8.40^a
same,Minolta b* values (after 5 day retail display),pigs [1]; dietary level 300 IU,5.93^ab
same,Minolta L* values (after 5 day retail display),pigs [1]; dietary level 450 IU,41.9^bc
same,Minolta a* values (after 5 day retail display),pigs [1]; dietary level 450 IU,6.58^b
same,Minolta b* values (after 5 day retail display),pigs [1]; dietary level 450 IU,3.97^bc
same,Japanese Color Score,pigs [2]; dietary level 300 IU,3.56^ab
same,Japanese Color Score,pigs [2]; dietary level 450 IU,3.94^ab
same,Japanese Color Score,pigs [2]; [8],3.75
same,absorbed in the bloodstream,[3],about 100%
same,PH,pigs [4]; all supplemented levels pooled,5.97
same,PH,pigs [4]; dietary level 300 IU,6.08^ab
same,PH,pigs [4]; dietary level 450 IU,5.85^b
same,Gain: feed,lambs [5]; 1st 20 Days,124.2 g/kg
same,Intake,lambs [5]; 1st 20 Days,1.43 kg/day
same,ADG,"lambs [5]; 1st 20 Days, 500 IU/kg/day",164.1 g/day
same,ADG,lambs [5]; 2nd 23 Days,190.9^b g/d
same,Gain: feed,lambs [5]; 2nd 23 Days,127.1^a g/kg
same,Intake,lambs [5]; 2nd 23 Days,1.54 kg/day
same,ADG,"lambs [5]; 2nd 23 Days, listed as alpha-tocopherol",190.9 g/day
same,ADG,lambs [5]; Overall,182.3 g/day
same,Gain: feed,lambs [5]; Overall,126.0^a g/kg
same,Intake,lambs [5]; Overall,1.49 kg/day
same,Interim BW,lambs [5],52.1 kg
same,Final BW,lambs [5],56.6 kg
same,Appearance score (after 5 day retail display),pigs [6]; dietary level 300 IU,3.49
same,Appearance score (after 5 day retail display),pigs [6]; dietary level 450 IU,4.09
same,Appearance score (after 5 day retail display),pigs [6]; [9],3.79
same,Bone maturity,lambs [7],1.47^b
same,Leg score,lambs [7],10.8
same,Adjusted fat,lambs [7],0.55 cm
same,Body wall thickness,lambs [7],2.13 cm
same,Dressing percentage,lambs [7],48.2
same,Quality grade,lambs [7],5.27
same,Rib eye area,lambs [7],5.63 sq. cm
same,Yield grade,lambs [7],2.42
same,Hot carcass weight,lambs [7],27.4 kg
same,Flank streaking,lambs [7],3.02^a
"Cc1c(O)cc2c(c1C)O[C@](C)(CCC[C@H](C)CCC[C@H](C)CCCC(C)C)CC2 [Gamma-tocopherol, gamma-tocopherol]",Minolta L* values (after 5 day retail display),pigs [1]; all supplemented levels pooled,41.4
same,Minolta a* values (after 5 day retail display),pigs [1]; all supplemented levels pooled,8.13
same,Minolta b* values (after 5 day retail display),pigs [1]; all supplemented levels pooled,4.48
same,Minolta L* values (after 5 day retail display),pigs [1]; dietary level 150 IU,42.4^bc
same,Minolta a* values (after 5 day retail display),pigs [1]; dietary level 150 IU,7.57^ab
same,Minolta b* values (after 5 day retail display),pigs [1]; dietary level 150 IU,5.13^bc
same,Minolta L* values (after 5 day retail display),pigs [1]; dietary level 300 IU,39.7^c
same,Minolta a* values (after 5 day retail display),pigs [1]; dietary level 300 IU,8.20^a
same,Minolta b* values (after 5 day retail display),pigs [1]; dietary level 300 IU,3.85^c
same,Minolta a* values (after 5 day retail display),"pigs [1]; dietary level 300 IU, listed as gamma-tocopherol",8.40
same,Minolta L* values (after 5 day retail display),pigs [1]; dietary level 450 IU,43.0^b
same,Minolta a* values (after 5 day retail display),pigs [1]; dietary level 450 IU,8.05^a
same,Minolta b* values (after 5 day retail display),pigs [1]; dietary level 450 IU,5.12^bc
same,Japanese Color Score,pigs [2]; dietary level 150 IU,3.18^ab
same,Japanese Color Score,pigs [2]; dietary level 300 IU,4.32^a
same,Japanese Color Score,pigs [2]; dietary level 450 IU,3.56^ab
same,Japanese Color Score,pigs [2]; [8],3.94
same,absorbed in the bloodstream,[3],3–19%
same,PH,pigs [4]; all supplemented levels pooled,6.11
same,PH,pigs [4]; dietary level 150 IU,5.99^ab
same,PH,pigs [4]; dietary level 300 IU,6.28^a
same,PH,pigs [4]; dietary level 450 IU,5.94^b
same,Gain: feed,lambs [5]; 1st 20 Days,132.6 g/kg
same,Intake,lambs [5]; 1st 20 Days,1.35 kg/day
same,ADG,"lambs [5]; 1st 20 Days, 500 IU/kg/day",173.5 g/day
same,ADG,lambs [5]; 2nd 23 Days,264.0^a g/d
same,Gain: feed,lambs [5]; 2nd 23 Days,187.2^b g/kg
same,Intake,lambs [5]; 2nd 23 Days,1.45 kg/day
same,ADG,"lambs [5]; 2nd 23 Days, listed as gamma-tocopherol",264.0 g/day
same,ADG,lambs [5]; Overall,221.9 g/day
same,Gain: feed,lambs [5]; Overall,162.8^b g/kg
same,Intake,lambs [5]; Overall,1.40 kg/day
same,Interim BW,lambs [5],53.0 kg
same,Final BW,lambs [5],59.1 kg
same,Appearance score (after 5 day retail display),pigs [6]; dietary level 150 IU,4.05
same,Appearance score (after 5 day retail display),pigs [6]; dietary level 300 IU,4.06
same,Appearance score (after 5 day retail display),pigs [6]; dietary level 450 IU,3.72
same,Appearance score (after 5 day retail display),pigs [6]; [9],3.89
same,Bone maturity,lambs [7],1.62^ab
same,Leg score,lambs [7],10.8
same,Adjusted fat,lambs [7],0.47 cm
same,Body wall thickness,lambs [7],1.92 cm
same,Dressing percentage,lambs [7],46.8
same,Quality grade,lambs [7],5.23
same,Rib eye area,lambs [7],5.62 sq. cm
same,Yield grade,lambs [7],2.19
same,Hot carcass weight,lambs [7],27.7 kg
same,Flank streaking,lambs [7],2.40^ab
